Literature values as cited in paper PMC5862601 (Oncotarget, 2018).
Like-named read-outs stand apart in the source and are kept apart here.

Key:
[1] = test system: T24 human bladder carcinoma cells; conditions: cited from earlier work; for EC50: T24 human bladder carcinoma
[2] = test system: Breast cancer cell line MDA-MB-231; design: method as in Panjehpour M, et al. Br J Pharmacol. 2005; 145: 211-218. [25]; conditions: ref Panjehpour M, et al. Br J Pharmacol. 2005, 145: 211-218. [25]; cited from earlier work
[3] = test system: PC12 (rat) phaeochromocytoma cells; conditions: cited from earlier work
[4] = test system: Human prostatic carcinoma cells PC-3; design: method as in Wei Q, et al. Purinergic Signal. 2013; 9: 271-280. [23]; conditions: ref Wei Q, et al. Purinergic Signal. 2013, 9: 271-280. [23]; cited from earlier work
A2B receptor (CHO-A2B) = conditions: ref De Filippo E, et al. Purinergic Signal. 2016;12: 313-329. [11]; cited from earlier work
[5] = test system: Ovarian cancer cell line Caov-4; design: method as in Hajiahmadi S, et al. Res Pharm Sci. 2015; 10: 43-51. [24]; conditions: ref Hajiahmadi S, et al. Res Pharm Sci. 2015, 10: 43-51. [24]; cited from earlier work
Jurkat-T cells = conditions: cited from earlier work; for EC50: Jurkat-T, ref Van der Ploeg et al. Naunyn Schmiedeberg’s Arch Pharmacol. 1996, 353: 250-260. [22]
[6] = test system: isolated perfused mouse heart; conditions: A2B knockout vs wildtype mice, ref [51]; cited from earlier work
[7] = test system: HMEC-1 human microvascular endothelial cell line; design: method as in Feoktistov I, et al. Circ Res. 2002; 90:531-538. [21]; conditions: ref Feoktistov I, et al. Circ Res. 2002, 90:531-538. [21]; cited from earlier work
[8] = test system: Ovarian cancer cell line SKOV-3; design: method as in Hajiahmadi S, et al. Res Pharm Sci. 2015; 10: 43-51. [24]; conditions: ref Hajiahmadi S, et al. Res Pharm Sci. 2015, 10: 43-51. [24]; cited from earlier work
[9] = test system: HUVEC Human Umbilical Vein Endothelial Cells; design: method as in Feoktistov I, et al. Circ Res. 2002; 90: 531-538. [21]; conditions: HUVEC (A2A > A2B); ref Feoktistov I, et al. Circ Res. 2002; 90: 531-538. [21]; cited from earlier work
[10] = test system: HEK293 (native) cells, A2B ≥ A2A; conditions: cited from earlier work
[11] = test system: Ovarian cancer cell line OVCAR-3; design: method as in Hajiahmadi S, et al. Res Pharm Sci. 2015; 10: 43-51. [24]; conditions: ref Hajiahmadi S, et al. Res Pharm Sci. 2015, 10: 43-51. [24]; cited from earlier work
HEK-A2B cells, A2B ≥ A2A = conditions: cited from earlier work
[12] = test system: human ovarian cancer cell lines (A2B > A2A); conditions: three human ovarian cancer cell lines (A2B > A2A); ref [12]; cited from earlier work
[13] = test system: prostate cancer cell lines (A2B > A2A); conditions: three prostate cancer cell lines (A2B > A2A); ref [13]; cited from earlier work
[14] = ref Gao Z, et al. Biochem Pharmacol. 2014, 90: 297-306. [17]
[15] = ref van der Ploeg et al. Naunyn Schmiedeberg’s Arch Pharmacol. 1996, 353: 250-260. [22], read-out: EC50

CCNC(=O)[C@H]1O[C@@H](n2cnc3c(N)nc(NCCc4ccc(CCC(=O)O)cc4)nc32)[C@H](O)[C@@H]1O [CGS-21680, (2-p-[2-carboxyethyl]phenethylamino)-5´-N-ethylcarboxamidoadenosine]
induction of cAMP accumulation ([1]; T24 (A2B > A2A), ref [45]): inactive | EC50 [1, 14]: > 10 µM | EC50 ([1]; ref Phelps PT, et al. Eur J Pharmacol. 2006, 536: 28-37. [20]): > 10 µM | EC50 [2]: > 10 µM | EC50 ([3]; ref Hide I, et al. Mol Pharmacol. 1992, 41: 352-359. [26], read-out: EC50): 0.064 µM | EC50 [3, 15]: 0.09 µM | EC50 [4]: > 10 µM | EC50 (A2B receptor (CHO-A2B)): 31.1 µM | EC50 [5]: > 100 µM | activity in cAMP assays (Jurkat-T cells; Jurkat-T cells (A2B ≥ A2A), ref [47]): nearly inactive | EC50 (Jurkat-T cells): > 100 µM | increase in coronary flow [6]: increased coronary flow in A2B knockout (KO) mice to a significantly higher degree than in wildtype (WT) mice | EC50 [7]: > 100 µM | EC50 [8]: > 100 µM | EC50 [9]: 0.469 µM | EC50 ([10]; ref Cooper J, et al. Br J Pharmacol. 1997, 122: 546-550. [18]): > 30 µM | EC50 [10, 14]: > 10 µM | EC50 [11]: > 100 µM

CCNC(=O)[C@H]1O[C@@H](n2cnc3c(N)ncnc32)[C@H](O)[C@@H]1O [NECA, 5′-N-ethylcarboxamidoadenosine]
EC50 (HEK-A2B cells, A2B ≥ A2A; [14]): 0.021 µM | EC50 (HEK-A2B cells, A2B ≥ A2A; ref Hinz S, et al. J Pharmacol Exp Ther. 2014, 3: 427-436. [15]): 0.2 µM | EC50 (HEK-A2B cells, A2B ≥ A2A; ref Linden J, et al. Mol Pharmacol. 1999, 56: 705-713. [19]): 0.0286 µM | EC50 [2]: 1.13 µM | EC50 ([3]; high-affinity component, ref Hide I, et al. Mol Pharmacol. 1992, 41: 352-359. [26], read-out: EC50, biphasic: KH): 0.066 µM | EC50 ([3]; low-affinity component, ref Hide I, et al. Mol Pharmacol. 1992, 41: 352-359. [26], read-out: EC50, biphasic: KL): 7.5 µM | EC50 [3, 15]: 0.2 µM | EC50 [4]: 0.469 µM | EC50 [5]: 9.12 µM | induction of cAMP accumulation [12]: concentration-dependently induced cAMP accumulation | induction of cAMP accumulation [13]: concentration-dependently induced cAMP accumulation | EC50 (Jurkat-T cells): 5.8 µM | increase in coronary flow [6]: increased coronary flow in A2B knockout (KO) mice to a significantly higher degree than in wildtype (WT) mice | EC50 [7]: 14 µM | EC50 [8]: 18 µM | EC50 [9]: 0.95 µM | EC50 [11]: 6.6 µM
